These are literature values, as cited in PubChem BioAssay AID1259409 (Chemical Carcinogenesis Research Information System (CCRIS), 2018).

Several values for one entry are separate records, joined by “and”; a condition that tells them apart may be missing. Equal values may be shown once.

For this data set, the system named is rodent chemically induced tumor inhibition, incidence and multiplicity. Kind of data set: CCRIS tumor inhibitor studies.

With `Oc1ccc(C2=Cc3ccc(O)cc3OC2)cc1`, the “tumour outcome (control, treated, inhibition, significance)” value (Carcinogen: 7,12-DIMETHYLBENZ[A]ANTHRACENE, 57-97-6, Dose [Inhibitor]: 0, 50 MG/KG IN DIET FOR 117 D (STUDY DURATION: 117 D), Route [Inhibitor]: ORAL, Species: RAT, Strain/Sex: SPRAGUE-DAWLEY/FEMALE, Target Tissue: Type of Lesion: MAMMARY GLAND: TUMOR, Dose [Carcinogen]: 15 MG IN SESAME OIL, ONCE, 7 D AFTER FIRST INHIBITOR DOSE) is 15/16 (94.7%), 12/18 (65%), 31.4%, p< 0.05 and the “tumour outcome (control, treated, inhibition, significance)” value (Carcinogen: 7,12-DIMETHYLBENZ[A]ANTHRACENE, 57-97-6, Dose [Inhibitor]: 0, 75 MG/KG IN DIET FOR 117 D (STUDY DURATION: 117 D), Route [Inhibitor]: ORAL, Species: RAT, Strain/Sex: SPRAGUE-DAWLEY/FEMALE, Target Tissue: Type of Lesion: MAMMARY GLAND: TUMOR, Dose [Carcinogen]: 15 MG IN SESAME OIL, ONCE, 7 D AFTER FIRST INHIBITOR DOSE) was 15/16 (94.7%), 12/17 (70%), 26.1%, p< 0.05.

Regarding `COc1ccc2nc(S(=O)Cc3ncc(C)c(OC)c3C)[nH]c2c1` (configuration not stated), under “Carcinogen: AZOXYMETHANE, 25843-45-2, Dose [Inhibitor]: 0, 40 UMOL/KG 1/D FOR 27 WK BEGINNING 6 WK PRIOR TO CARCINOGEN TREATMENT (STUDY DURATION: 27 WK), Route [Inhibitor]: GAVAGE, Species: RAT, Strain/Sex: SPRAGUE-DAWLEY/FEMALE, Target Tissue: Type of Lesion: COLON: TUMOR, Dose [Carcinogen]: 10 MG/KG 1/WK FOR 12 WK, Promoter: NONE USED”, the “tumour outcome (control, treated, inhibition, significance)” value was 19/20 (95%), 12/19 (63%), 34%, p<0.02.

As to `CC(=O)O[C@@H]1C(=O)O[C@H]2[C@@H]1OC(=O)[C@@H]2OC(C)=O`, the “tumour outcome (control, treated, inhibition, significance)” value (Carcinogen: 2-(ACETYLAMINO)FLUORENE, 6292-55-3, Dose [Inhibitor]: 1.2% IN DIET SIMULTANEOUSLY WITH CARCINOGEN (STUDY DURATION: 30 WK), Route [Inhibitor]: ORAL, Species: RAT, Strain/Sex: WISTAR/MALE, Target Tissue: Type of Lesion: URINARY BLADDER: TUMOR, Dose [Carcinogen]: 0.04% IN DIET SUPPLEMENTED WITH 1.4% D,L-TRYPTOPHAN, Promoter: NONE USED) is on record as 7/45 (20%), 11/40 (28%), -40%, not calculated; the “tumour outcome (control, treated, inhibition, significance)” value (Carcinogen: 2-(ACETYLAMINO)FLUORENE, 6292-55-3, Dose [Inhibitor]: 1.2% IN DIET SIMULTANEOUSLY WITH CARCINOGEN (STUDY DURATION: 30 WK), Route [Inhibitor]: ORAL, Species: RAT, Strain/Sex: WISTAR/MALE, Target Tissue: Type of Lesion: URINARY BLADDER: TUMOR, Dose [Carcinogen]: 0.04% IN VITAMIN B6 DEFICIENT DIET, Promoter: NONE USED) is reported as 6/33 (18%), 2/38 (5%), 72%, not calculated; the “tumour outcome (control, treated, inhibition, significance)” value (Carcinogen: 7,12-DIMETHYLBENZ[A]ANTHRACENE, 57-97-6, Dose [Inhibitor]: 400 MG/KG, 30 MIN BEFORE DMBA TREATMENT AND 3 HR AFTER DMBA TREATMENT (STUDY DURATION: 36 WK), Route [Inhibitor]: INTRAGASTRIC, Species: RAT, Strain/Sex: SPRAGUE-DAWLEY/FEMALE, Target Tissue: Type of Lesion: MAMMARY GLAND: TUMOR, Dose [Carcinogen]: 130 MG/KG ONCE, Promoter: NONE USED) is 92%, 22%, 76%, not calculated.

As for `CCCCCCCCCCCCCCCCCC(=O)O`, the “tumour outcome (control, treated, inhibition, significance)” value is listed as 16/50 (32%), 25/50 (50%), -56%, not calculated (Carcinogen: BENZO[A]PYRENE, 50-32-8, Dose [Inhibitor]: 4 MG IN 0.2 ML ACETONE 3/WK ADMINISTERED SIMULTANEOUSLY WITH CARCINOGEN FOR DURATION OF STUDY (STUDY DURATION: 440 D), Route [Inhibitor]: DERMAL, Species: MOUSE, Strain/Sex: ICR/FEMALE, Target Tissue: Type of Lesion: SKIN: PAPILLOMA, Dose [Carcinogen]: 5 UG IN 0.2 ML ACETONE THAT ALSO CONTAINED AGENT 3/WK, Promoter: NONE USED) and 12/50 (24%), 7/50 (14%), 42%, not calculated (Carcinogen: BENZO[A]PYRENE, 50-32-8, Dose [Inhibitor]: 4 MG IN 0.2 ML ACETONE 3/WK ADMINISTERED SIMULTANEOUSLY WITH CARCINOGEN FOR DURATION OF STUDY (STUDY DURATION: 440 D), Route [Inhibitor]: DERMAL, Species: MOUSE, Strain/Sex: ICR/FEMALE, Target Tissue: Type of Lesion: SKIN: SQUAMOUS CARCINOMA, Dose [Carcinogen]: 5 UG IN 0.2 ML ACETONE THAT ALSO CONTAINED AGENT 3/WK, Promoter: NONE USED).

For the compound `O=C(O)/C=C/c1ccccc1`, the “tumour outcome (control, treated, inhibition, significance)” value (Carcinogen: BENZO[A]PYRENE, 50-32-8, Dose [Inhibitor]: 0.06 MMOL/G OF DIET DAILY STARTING 7 D BEFORE AND CONTINUING THROUGH 3 D AFTER CARCINOGEN TREATMENT FOLLOWED BY OBSERVAT, Route [Inhibitor]: ORAL, Species: MOUSE, Strain/Sex: ICR/FEMALE, Target Tissue: Type of Lesion: FORESTOMACH: NEOPLASM, Dose [Carcinogen]: 1 MG IN 0.2 ML CORN OIL 2/WK FOR 4 WK, Promoter: NONE USED) was 97%, 100%, -3%, not significant and 100%, 94%, 6%, not significant.

In the case of `C=C(C)C1CC=C(CO)CC1` (configuration not stated), the “tumour outcome (control, treated, inhibition, significance)” value runs as follows: (Carcinogen: 4-(METHYLNITROSAMINO)-1-(3-PYRIDYL)-1-BUTANONE, 64091-91-4, Dose [Inhibitor]: 0, 75 MG/KG BW 3/WK FOR 22 WK BEGINNING 1 WK PRIOR TO CARCINOGEN TREATMENT (STUDY DURATION: 23 WK), Route [Inhibitor]: INTRAPERITONEAL, Species: MOUSE, Strain/Sex: C3AF1/MALE, Target Tissue: Type of Lesion: LUNG: TUMOR, Dose [Carcinogen]: 100 MG/KG BW 1/WK FOR 2 WK, Promoter: NONE USED) 100%, 79%, 21%, p<0.005; (Carcinogen: AZOXYMETHANE [25843-45-2], Dose [Inhibitor]: 1 G/KG IN DIET FOR 55 WK BEGINNING 2 WK PRIOR TO FIRST CARCINOGEN DOSE (STUDY DURATION: 55 WK), Route [Inhibitor]: ORAL, Species: RAT, Strain/Sex: F344/MALE, Target Tissue: Type of Lesion: COLON: ADENOCARCINOMA, Dose [Carcinogen]: 15 MG/KG BW 1/WK FOR 2 WK (STUDY DURATION: 55 WK), Promoter: NONE) 78%, 64%, 18%, not significant and 78%, 56%, 29%, p<0.05; (Carcinogen: AZOXYMETHANE [25843-45-2], Dose [Inhibitor]: 1 G/KG IN DIET FOR 55 WK BEGINNING 2 WK PRIOR TO FIRST CARCINOGEN DOSE (STUDY DURATION: 55 WK), Route [Inhibitor]: ORAL, Species: RAT, Strain/Sex: F344/MALE, Target Tissue: Type of Lesion: SMALL INTESTINE: ADENOCARCINOMA, Dose [Carcinogen]: 15 MG/KG BW 1/WK FOR 2 WK (STUDY DURATION: 55 WK), Promoter: NONE) 31%, 28%, 9%, not significant; (Carcinogen: AZOXYMETHANE [25843-45-2], Dose [Inhibitor]: 2 G/KG IN DIET FOR 55 WK BEGINNING 2 WK PRIOR TO FIRST CARCINOGEN DOSE (STUDY DURATION: 55 WK), Route [Inhibitor]: ORAL, Species: RAT, Strain/Sex: F344/MALE, Target Tissue: Type of Lesion: SMALL INTESTINE: ADENOCARCINOMA, Dose [Carcinogen]: 15 MG/KG BW 1X/WK FOR 2 WK (STUDY DURATION: 55 WK), Promoter: NONE) 31%, 11%, 64%, p<0.05.

For `C=C(C)C1C=CC(C)(O)CC1` (configuration not stated), the “tumour outcome (control, treated, inhibition, significance)” value (Carcinogen: BENZO[A]PYRENE, 50-32-8, Dose [Inhibitor]: 0, 20 MG 3/WK FOR 4 WK ON DAYS OTHER THAN THE CARCINOGEN TREATMENT (STUDY DURATION: 20 WK), Route [Inhibitor]: GAVAGE, Species: MOUSE, Strain/Sex: STRAIN-A/FEMALE, Target Tissue: Type of Lesion: FORESTOMACH: TUMOR, Dose [Carcinogen]: 1 MG IN 0.2 ML COTTONSEED OIL 2/WK FOR 4 WK, Promoter: NONE USED) is given as 13/19 (68%), 7/14 (50%), 26%, not significant.

As for `CC(=O)C1CC2CC1CC2N=C=S` (configuration not stated), under “Carcinogen: 7,12-DIMETHYLBENZ[A]ANTHRACENE, 57-97-6, Dose [Inhibitor]: 0, 100 UMOL/D IN 0.5 ML EMULPHOR EL-620 FOR 5 CONSECUTIVE DAYS BEGINNING AT 47 D OF AGE (STUDY DURATION: 155 D), Route [Inhibitor]: GAVAGE, Species: RAT, Strain/Sex: SPRAGUE-DAWLEY/FEMALE, Target Tissue: Type of Lesion: MAMMARY GLAND: TUMOR, Dose [Carcinogen]: 8 MG IN 1 ML SESAME OIL ONCE AT 50 D OF AGE, Promoter: NONE USED”, the “tumour outcome (control, treated, inhibition, significance)” value is given as 17/25 (68%), 8/20 (40%), 41%, not significant.

Turning to `O=[N+]([O-])[O-].O=[N+]([O-])[O-].O=[N+]([O-])[O-].[Bi+3]`, the “tumour outcome (control, treated, inhibition, significance)” value (Carcinogen: CISPLATIN, 15663-27-1, Dose [Inhibitor]: 0, 50 UMOL/KG/D 3 D/WK FOR 8 WK ADMINISTERED 24 HR PRIOR TO EACH CARCINOGEN DOSE (STUDY DURATION: 24 WK), Route [Inhibitor]: SUBCUTANEOUS, Species: MOUSE, Strain/Sex: STRAIN-A/FEMALE, Target Tissue: Type of Lesion: LUNG: TUMOR, Dose [Carcinogen]: 2 UMOL/KG/D 3 D/WK FOR 8 WK, Promoter: NONE USED) is listed as 100%, 54%, 46%, p<0.01 and the “tumour outcome (control, treated, inhibition, significance)” value (Carcinogen: MELPHALAN, 148-82-3, Dose [Inhibitor]: 0, 50 UMOL/KG/D 3 D/WK FOR 8 WK ADMINISTERED 24 HR PRIOR TO EACH CARCINOGEN DOSE (STUDY DURATION: 24 WK), Route [Inhibitor]: SUBCUTANEOUS, Species: MOUSE, Strain/Sex: STRAIN-A/FEMALE, Target Tissue: Type of Lesion: LUNG: TUMOR, Dose [Carcinogen]: 4 UMOL/KG/D 3 D/WK FOR 8 WK, Promoter: NONE USED) is given as 100%, 100%, 0%, not significant.
